Experimental data taken from patent publication US4405643A, “Treatment of acute pulmonary edema with arginine esters” (Italfarmaco S.p.A., priority 1979, dated 1983).
Counter-ions that a name gives are not always drawn.

Experiments:
[1] = system: Fibrin Degradation Products; experiment: Inhibition of hyperfibrinolysis caused by urokinase (F.D.P., staphylococcal clumping test); type: in vivo, Wistar rats; conditions: parenteral, 30 min before urokinase 2500 U.I/rat
Method: The induction of hyperfibrinolysis state is caused by administration of urokinase. The determination of the inhibition is carried out by determination of the F.D.P. value, that is Fibrin Degradation Products, according to the procedure of J. Hawiger et al, J. Lab. Clin. Med. 75, 93 (1970), by means of the staphylococcal clumping test (Boehringer Mannheim GmbH test).
There are used Wistar rats of 300 grams ±10 by weight previously stabilized for a period of ten days at a temperature of 21°±1° C., under conditions of controlled diet and water "ad libitum". Twenty-four hours prior to the beginning of the experiment, the animals are divided in groups of ten for the purpose of achieving randomization. Each individual dose is tried on three groups of animals.
At the beginning of the test, zero time, the compounds being tested are administered through the parenteral route. In the case of the control animals, at the same time an equal volume of a physiological saline solution is administered except that some blood is removed by means of a cardiac puncture, for the purpose of determining the basal fibrinolytic activity. After 30 minutes, human urokinase (the composition marketed by Ukidan-Serono) is administered intravenously in the amount of 2500 U.I/rat. After an additional period of ten minutes, blood is removed by means of a cardiac puncture for the final determination of F.D.P., a determination which is expressed in […].

[2] = Protection against shock caused by endotoxins (lipopolysaccharide B from S. Enteritidis); type: in vivo, male rats of Wistar type; conditions: parenteral, 1 h before endotoxin, after 24 h
Source text: Endotoxin-induced shock has been produced according to the method reported by A. Bertelli and L. Donati, in the publication "The Influence of Some Enzymes and Enzymes Inhibitors in Shock", published in "SHOCK Biochemical,Pharmaceutical and Clinical Aspects"; A. Bertelli and N. Back Editors, Advances in Experimental Medicine and Biology; Volume 9, Plenum Press New York - London 1970, page 215. By way of comparison, there has been used a substance of well known therapeutical activity, specifically aprotinine, the commercial products marketed by Farbenfabriken Bayer, under the name "Trasylol". Male rats of Wistar type of 120 grams by weight ±10 have been used. The rats were previously stabilized for a period of ten days at a temperature of 21°±1° C. under a controlled diet and water "ad libitum". Twenty-four hours prior to the test, the animals were divided in groups of ten for the purpose of achieving randomization. Every single dose has been tried on six groups of animals.
Lipopolysaccharide B from S. Enteritidis (Difco Labs.) was used as the endotoxin. This substance was administered in the dose of 10 mg/kg by the endoperitoneal route, one hour after administration of the substance being administered by the parenteral route or in the form of a physiological solution in equal volume per kilogram to the animals being used as control.
The mortality in percent was determined in the animals being tested as compared with the controls after twenty-four hours.

[3] = Protection against anaphylactic shock (horse serum); type: in vivo, male albino guinea pigs; conditions: parenteral, with horse serum challenge, after 12 h
Method: The anaphylactic shock has been induced according to the method of S. M. Feinberg, M. Pharmacol. Exp. Therapeut., 99, 195 (1950). There have been used male albino guinea pigs of average weight, 350±20 grams previously stabilized for a period of ten days at a temperature of 21°±1° C., under conditions of controlled diet and water "ad libitum". Three days before the beginning of the experiment, the animals are divided in groups of ten for the purpose of achieving good randomization. Each single dose has been tried on three groups of animals.
The sensitization has been carried out by administration of 1 ml/guinea pig through the endovenous route of horse serum, (whole serum, not treated with preservatives) diluted 1:10 in physiological saline solution. After 14 days, the solutions of the substances being tested and the samples of physiological solutions for use with the controls are administered through the parenteral route. Simultaneously, 1 ml/guinea pig of horse serum, undiluted is administered, this substance being used as the agent which prompts the anaphylaxis. The percentage of mortality is determined after 12 hours.

[4] = Protection against pulmonary edema (adrenaline-induced acute edema of the lungs); type: in vivo, male albino rats of Wistar type; conditions: parenteral, 15 min before adrenaline
Method: The method of A. M. Rothschild and A. Castania (Arch. Pharmacol., 295, 177 (1976)), has been used to develop the acute edema in the lungs and substances of known therapeutic activity have been used for comparison purpose.
For the test, male albino rats of Wistar type of average weight 250-350 grams, have been used for the test. The rats were stabilized for a period of ten days at a temperature of 21°±1° C., under conditions of controlled diet and water "ad libitum". Prior to the test, the animals were divided into groups of ten for the purpose of achieving good randomization. Each dose was tried on three groups of animals. The animals were anesthetized with pentobarbital in a dose of 30 mg/kg at the beginning of the test. After the animals were in complete narcosis, the following substances were administered by the parenteral route:
1. to the animals as controls, physiological saline solution in the amount of 1 ml/kg,
2. to the animals in the test, a solution of the substance being tested in physiological saline solution in the amount of 1 ml/kg in the doses reported hereinbelow in the table.
After a period of 15 minutes, for the purpose of determining the protective activity of the substances, adrenaline was administered in the amount of 16 γ/kg by the endovenous route and in physiological saline solution, for the purpose of causing acute edema.
After five minutes, the animals were killed by removal of the head, the lungs were removed and the weight of the lungs were determined. The results of the test are reported in Table 1 hereinbelow, together with the concentration of the substances and the relative inhibition of edema in percent.

Row | Compound | F.D.P. ([1]; dose 5 mg/kg) [milliliters] | F.D.P. ([1]; dose 10 mg/kg) [milliliters] | F.D.P. ([1]; dose 20 mg/kg) [milliliters] | % MORTALITY ([2]; dose 5 mg/kg) [%] | % MORTALITY ([2]; dose 10 mg/kg) [%] | % MORTALITY ([2]; dose 20 mg/kg) [%] | % MORTALITY ([2]; dose 50 mg/kg) [%] | % MORTALITY ([3]; dose 10 mg/kg) [%] | % MORTALITY ([3]; dose 20 mg/kg) [%] | % MORTALITY ([3]; dose 50 mg/kg) [%] | % INHIBITION OF EDEMA ([4]; dose 1 mg/kg) [%] | % INHIBITION OF EDEMA ([4]; dose 2.5 mg/kg) [%] | % INHIBITION OF EDEMA ([4]; dose 5 mg/kg) [%] | % INHIBITION OF EDEMA ([4]; dose 10 mg/kg) [%] | % INHIBITION OF EDEMA ([4]; dose 20 mg/kg) [%] | further results
1 | CO [Methanol] |  |  |  |  |  |  |  |  |  |  |  |  |  |  |  | F.D.P. ([1]; dose 2 mg/kg): 3.02 milliliters; F.D.P. ([1]; dose 4 mg/kg): 3.12 milliliters; F.D.P. ([1]; dose 8 mg/kg): 3.27 milliliters; % MORTALITY ([2]; dose 2 mg/kg): 76%; % MORTALITY ([2]; dose 4 mg/kg): 72%; % MORTALITY ([2]; dose 8 mg/kg): 74%; % MORTALITY ([3]; dose 2 mg/kg): 76.6%; % MORTALITY ([3]; dose 4 mg/kg): 79.4%; % MORTALITY ([3]; dose 8 mg/kg): 81%; % INHIBITION OF EDEMA ([4]; dose 0.08 mg/kg): 2.3%; % INHIBITION OF EDEMA ([4]; dose 0.8 mg/kg): 5%; % INHIBITION OF EDEMA ([4]; dose 2 mg/kg): 12%; % INHIBITION OF EDEMA ([4]; dose 4 mg/kg): 6%; % INHIBITION OF EDEMA ([4]; dose 8 mg/kg): 15%; % INHIBITION OF EDEMA ([4]; dose 16 mg/kg): 15%
2 | CCOC(=O)[C@@H](N)CCCNC(=N)N [L-A.E., LArginine ethyl ester hydrochloride] | 0.50 | 0.33 | 0.27 | 51.3 | 48.2 | 37.5 | 25.0 | 35 | 23 | 9.5 | 55.7 | 47.9 | 41.0 | 38.9 | 39.7 | % INHIBITION OF EDEMA ([4]; dose 0.1 mg/kg): 3.4%; % INHIBITION OF EDEMA ([4]; dose 0.25 mg/kg): 32.2%; % INHIBITION OF EDEMA ([4]; dose 0.5 mg/kg): 33.3%
3 | COC(=O)[C@@H](N)CCCNC(=N)N [L-A.M., LArginine methyl ester hydrochloride] | 0.48 | 0.30 | 0.25 | 55.0 | 50.0 | 40.0 | 28.0 | 40.5 | 27 | 12.5 | 21.2 | 27.4 | 29.0 | 55.7 | 15.7 | 
4 | COC(=O)[C@H](N)CCCNC(=N)N [D-A.M., DArginine methyl ester hydrochloride] | 3.10 | 3.03 | 3.16 | 71.2 | 68.5 | 69 | 73 | 78.8 | 81.0 | 76.3 | 16.8 | 11.7 | 15.4 | 4.4 | 6.4 | 
5 | N=C(N)NCCC[C@H](N)C(=O)O [L-Arginine.2HCl] | 3.28 | 2.96 | 3.15 | 69 | 73 | 71 | 78 | 78.5 | 76.3 | 80 | 7 | 9 | 11 | 10.1 | 13.1 | 
6 | NC[C@H]1CC[C@H](C(=O)O)CC1 [Tranexamic Acid, trans4-(aminomethyl)cyclohexancarboxylic acid] | 0.58 | 0.39 | 0.33 |  |  |  |  |  |  |  |  |  |  |  |  | 
7 | CCO [Ethanol] |  |  |  |  |  |  |  |  |  |  |  |  |  |  |  | F.D.P. ([1]; dose 2 mg/kg): 3.06 milliliters; F.D.P. ([1]; dose 4 mg/kg): 2.95 milliliters; F.D.P. ([1]; dose 8 mg/kg): 3.11 milliliters; % MORTALITY ([2]; dose 2 mg/kg): 67%; % MORTALITY ([2]; dose 4 mg/kg): 69%; % MORTALITY ([2]; dose 8 mg/kg): 73%; % MORTALITY ([3]; dose 2 mg/kg): 76.4%; % MORTALITY ([3]; dose 4 mg/kg): 74%; % MORTALITY ([3]; dose 8 mg/kg): 76.5%; % INHIBITION OF EDEMA ([4]; dose 0.08 mg/kg): 7%; % INHIBITION OF EDEMA ([4]; dose 0.8 mg/kg): 12%; % INHIBITION OF EDEMA ([4]; dose 2 mg/kg): 15%; % INHIBITION OF EDEMA ([4]; dose 4 mg/kg): 14.7%; % INHIBITION OF EDEMA ([4]; dose 8 mg/kg): 16%; % INHIBITION OF EDEMA ([4]; dose 16 mg/kg): 15.9%
8 | CCOC(=O)[C@H](N)CCCNC(=N)N [D-A.E., DArginine ethyl ester hydrochloride] | 3.20 | 3.16 | 3.19 | 72 | 67 | 69.3 | 71 | 76.7 | 79.4 | 81.0 | 4.2 | 7 | 5.3 | 6 | 2.5 | % INHIBITION OF EDEMA ([4]; dose 0.1 mg/kg): 7%; % INHIBITION OF EDEMA ([4]; dose 0.25 mg/kg): 11%; % INHIBITION OF EDEMA ([4]; dose 0.5 mg/kg): 3%
9 | CC(=O)Oc1ccccc1C(=O)O [Aspirin] |  |  |  |  |  |  |  |  |  |  | 32.2 | 36.9 | 48.2 | 54.3 | 19.6 | 
